Source: patent US11365174B2 (priority 2016, dated 2022)
“Also recorded” adds a separate entry of the source. Where two headings read alike, the source gives them in different places.

Test system: Influenza A virus strain A/Puerto Rico/8/1934 H1N1 (PR8; amantadine-resistant)
Assay type: cell-based
Conditions: for potency of antiviral activity for the PR8 strain compared to amantadine or to other compounds of the class: comparison within figure; for antiviral activity for the PR8 strain (NA activity as read-out for viral protein synthesis/replication): L929 cells, 18-20 hours, fluorescence normalized to DMSO; for antiviral activity for the PR8 strain (NA activity as read-out for viral protein synthesis/replication) / selective activity against PR8 strain in first screen of docking hits: half-log dilutions; for selective activity against PR8 strain in first screen of docking hits: 1-10 uM, alongside DMSO and amantadine, normalized to DMSO

Row | Compound | potency of antiviral activity for the PR8 strain compared to amantadine or to other compounds of the class | antiviral activity for the PR8 strain (NA activity as read-out for viral protein synthesis/replication) | selective activity against PR8 strain in first screen of docking hits | antiviral activity for the PR8 strain (NA activity as read-out for viral protein synthesis/replication) (listed as Amantadine)
1 | COc1ccccc1CNS(=O)(=O)c1c(C)cc([N+](=O)[O-])cc1C [JDB-0120] | the most potent inhibitors of NA activity and PR8 virus replication; also recorded: the greatest activity for small molecules; also recorded: the greatest biological activity in the sulfonamide series | – | – | –
2 | COc1ccccc1CNS(=O)(=O)c1c(C)cc(C)cc1C [analog 31, N-[(2-methoxyphenyl)methyl]-2,4,6 trimethylbenzenesulfonamide] | the greatest activity | potent inhibitors of NA activity and PR8 virus replication; also recorded: antiviral activity for the PR8 strain | – | –
3 | O=C(CC12CC3CC(CC(C3)C1)C2)Nc1ccc([N+](=O)[O-])cc1 [compound 16, 2-(1-adamantyl)-N-(4-nitrophenyl)acetamide] | – | antiviral activity for the PR8 strain | selective activity against PR8 strain | –
4 | Cc1cc([N+](=O)[O-])ccc1NC(=O)CC12CC3CC(CC(C3)C1)C2 [analog 21, 2-(1-adamantyl)-N-(2-methyl-4-nitrophenyl)acetamide] | – | antiviral activity for the PR8 strain | – | –
5 | CC1=CCC2CC1C(c1ccc(O)cc1)OC2(C)C (stereo not drawn) [analog 4, 4-(2,2,6-trimethyl-3-oxabicyclo[3.3.1]non-6-en-4-yl)phenol] | the most potent; also recorded: more potent antiviral activity | antiviral activity for the PR8 strain | – | –
6 | COc1ccc(C2OCC3(CO)C(C)C=C(C)C2C3C)cc1 (stereo not drawn) [analog 2, [8-(4-methoxyphenyl)-2,4,9-trimethyl-7-oxabicyclo[3.3.1]non-2-en-5-yl]methanol] | more potent antiviral activity | antiviral activity for the PR8 strain | – | –
7 | Cc1cccc(CNS(=O)(=O)c2c(C)cc(C)cc2C)c1 [analog 7, 2,4,6-trimethyl-N-[(3-methylphenyl)methyl]benzenesulfonamide] | more potent antiviral activity; also recorded: more potent than amantadine | potent inhibitors of NA activity and PR8 virus replication; also recorded: antiviral activity for the PR8 strain | – | –
8 | O=[N+]([O-])c1ccc(C23CC4CC(CC(C4)C2)C3)cc1 [analog 23, 1-(4-nitrophenyl)adamantane] | – | antiviral activity for the PR8 strain | – | –
9 | NC12CC3CC(CC(C3)C1)C2 [amantadine, reference compound] | – | moderately inhibited PR8 replication at high enough concentrations | – | moderately inhibit the replication of the PR8 strain
10 | COc1cc(C2OCC3(CO)C(C)C=C(C)C2C3C)ccc1O (stereo not drawn) [analog 5, 4-[5-(hydroxymethyl)-2,4,9-trimethyl-7-oxabicyclo[3.3.1]non-2-en-8-yl]-2-methoxyphenol] | more potent antiviral activity | antiviral activity for the PR8 strain | – | –
11 | CC12CC3CC(C)(C1)CC(C(=O)Nc1ccc([N+](=O)[O-])cc1)(C3)C2 [analog 18, 3,5-dimethyl-N-(4-nitrophenyl)adamantane-1-carboxamide] | the most potent | antiviral activity for the PR8 strain | – | –
12 | O=[N+]([O-])c1ccc(C23CC4CC(CC(O)(C4)C2)C3)cc1 [compound 19, 3-(4-nitrophenyl)adamantan-1-ol] | – | antiviral activity for the PR8 strain | selective activity against PR8 strain | –
13 | Cc1cc(C)c(S(=O)(=O)NCc2ccccc2Cl)c(C)c1 [analog 11, N-[(2-chlorophenyl)methyl]-2,4,6 trimethylbenzenesulfonamide] | the most potent | potent inhibitors of NA activity and PR8 virus replication; also recorded: antiviral activity for the PR8 strain | – | –
14 | Cc1cc(C)c(S(=O)(=O)NCc2ccccc2)c(C)c1 [compound 3, N-benzyl-2,4,6-trimethylbenzenesulfonamide] | more potent than amantadine | antiviral activity for the PR8 strain | selective activity against PR8 strain | –
15 | Cc1cc([N+](=O)[O-])cc(C)c1S(=O)(=O)NCc1ccccc1Cl [JDB-0121] | the most potent inhibitors of NA activity and PR8 virus replication; also recorded: the greatest activity for small molecules; also recorded: the greatest biological activity in the sulfonamide series | – | – | –
